We go through 21 compounds from EP2257297B1, “COMPOUNDS FOR USE IN THE TREATMENT OF ACNE, SEBORRHOEA AND SEBHORROEIC DERMATITIS, OR FOR REDUCING SEBUM SECRETION” (priority 2008, dated 2009).

The structures appear in SMILES notation. A value given as a limit tells only on which side of the number the result lay.

For this test, the target named is T1, human MC5R (Homo sapiens, UniProt P33032).
T1 construct: purchased Perkin Elmer RBXMC5M400UA
T1 sequence (P33032 whole entry): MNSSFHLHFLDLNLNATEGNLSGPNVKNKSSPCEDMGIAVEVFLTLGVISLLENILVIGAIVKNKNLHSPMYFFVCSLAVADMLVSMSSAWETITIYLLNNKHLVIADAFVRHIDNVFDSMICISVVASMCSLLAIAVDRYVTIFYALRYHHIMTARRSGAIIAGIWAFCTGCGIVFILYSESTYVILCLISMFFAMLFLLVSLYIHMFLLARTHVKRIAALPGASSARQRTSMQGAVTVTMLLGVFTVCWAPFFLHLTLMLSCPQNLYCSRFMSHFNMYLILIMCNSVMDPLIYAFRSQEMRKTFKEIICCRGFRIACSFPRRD
The test is described as follows: Human MC5R radioligand binding assay ([125I] NDP-MSH displacement, hMC5R membranes). The note with it: hMC5R assay as in Example 102; compounds tested as trifluoroacetate or hydrochloride salts, or as free base. In short, it runs like this:
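Bound ligand collected by filtration on PEI-soaked GF/A filters and counted. Data fitted to a single-site competition model with fixed Hill coefficient to give EC50.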
As usually defined, the IC50 is the concentration at which inhibition is half-maximal. Take `O=C(NC[C@@H]1CCN(CC(c2ccccc2)c2ccccc2)C(=O)[C@H](CCN2CCCCC2)N1)c1ccc(Cl)c(Cl)c1` [Compound 284, 3,4-dichloro-N-(((3S,5S)-1-(2,2-diphenylethyl)-2-oxo-3-(2-(piperidin-1-yl)ethyl)-1,4-diazepan-5-yl)methyl)benzamide]: the IC50 is below 0.01 µM.
On to `Cc1ccc(C(=O)NC[C@@H]2CCN(CC(c3ccccc3)c3ccccc3)C(=O)[C@H](CCN3CCCCC3)N2)cc1C` [Compound 285, N-(((3S,5S)-1-(2,2-diphenylethyl)-2-oxo-3-(2-(piperidin-1-yl)ethyl)-1,4-diazepan-5-yl)methyl)-3,4-dimethylbenzamide], for which the IC50 is below 0.1 µM.
In the case of `CCCC[C@@H]1N[C@H](CNC(=O)/C=C/c2ccc(Cl)cc2)CCN(CC(c2ccccc2)c2ccccc2)C1=O` [Compound 297, (E)-N-(((3S,5S)-3-butyl-1-(2,2-diphenylethyl)-2-oxo-1,4-diazepan-5-yl)methyl)-3-(4-chlorophenyl)acrylamide] it was below 1 µM; in that of `NC(=O)CC[C@@H]1N[C@H](CNC(=O)/C=C/c2ccc(Cl)cc2)CCN(CC(c2ccccc2)c2ccccc2)C1=O` [Compound 298, (E)-N-(((3S,5S)-3-(3-amino-3-oxopropyl)-1-(2,2-diphenylethyl)-2-oxo-1,4-diazepan-5-yl)methyl)-3-(4-chlorophenyl)acrylamide], below 1 µM.
For `O=C(/C=C/c1ccc(Cl)cc1)NC[C@@H]1CCN(CC(c2ccccc2)c2ccccc2)C(=O)[C@H](CCNC(=O)C2CCCCC2)N1` [Compound 306, N-(2-((2S,7S)-7-(((E)-3-(4-chlorophenyl)acrylamido)methyl)-4-(2,2-diphenylethyl)-3-oxo-1,4-diazepan-2-yl)ethyl)cyclohexanecarboxamide], the IC50 is below 1 µM.
`O=C(/C=C/c1ccc(Cl)cc1)NC[C@@H]1CCN(CC(c2ccccc2)c2ccccc2)C(=O)[C@H](CCNC(=O)CC2CCCCC2)N1` [Compound 307, (E)-3-(4-chlorophenyl)-N-(((3S,5S)-3-(2-(2-cyclohexylacetamido)ethyl)-1-(2,2-diphenylethyl)-2-oxo-1,4-diazepan-5-yl)methyl)acrylamide]: the concentration for half-maximal inhibition (IC50) was below 1 µM.
Regarding `NCC[C@@H]1N[C@H](CCNC(=O)c2ccccc2)CCN(CC(c2ccccc2)c2ccccc2)C1=O` [Compound 308, N-(2-((3S,5R)-1-(2,2-diphenylethyl)-2-oxo-3-(2-aminoethyl)-1,4-diazepan-5-yl)ethyl)benzamide], the IC50 was below 10 µM.
On to `NCC[C@@H]1N[C@H](CCNC(=O)c2ccc(Cl)c(Cl)c2)CCN(CC(c2ccccc2)c2ccccc2)C1=O` [Compound 309, 3,4-dichloro-N-(2-((3S,5R)-1-(2,2-diphenylethyl)-2-oxo-3-(2-aminoethyl)-1,4-diazepan-5-yl)ethyl)benzamide], for which the IC50 was below 1 µM.
Turning to `O=C(NCC[C@@H]1CCN(CC(c2ccccc2)c2ccccc2)C(=O)[C@H](CCN2CCCCC2)N1)c1ccccc1` [Compound 311, N-(2-((3S,5R)-1-(2,2-diphenylethyl)-2-oxo-3-(2-(piperidin-1-yl)ethyl)-1,4-diazepan-5-yl)ethyl)benzamide], the IC50 was below 10 µM.
Regarding `O=C(NCC[C@@H]1CCN(CC(c2ccccc2)c2ccccc2)C(=O)[C@H](CCN2CCCCC2)N1)c1ccc(Cl)c(Cl)c1` [Compound 312, 3,4-dichloro-N-(2-((3S,5R)-1-(2,2-diphenylethyl)-2-oxo-3-(2-(piperidin-1-yl)ethyl)-1,4-diazepan-5-yl)ethyl)benzamide], the IC50 is below 1 µM.
With `O=C(/C=C/c1ccc(Cl)cc1)NC[C@@H]1CCN(CC(c2ccccc2)c2ccccc2)C(=O)[C@H](CCC(=O)N2CCCCC2)N1` [Compound 318, (E)-3-(4-chlorophenyl)-N-(((3S,5S)-1-(2,2-diphenylethyl)-2-oxo-3-(3-oxo-3-(piperidin-1-yl)propyl)-1,4-diazepan-5-yl)methyl)acrylamide], the IC50 is below 0.1 µM.
For the compound `O=C(/C=C/c1ccc(Cl)cc1)NC[C@@H]1CCN(CC(c2ccccc2)c2ccccc2)C(=O)[C@H](CCc2ccccc2)N1` [Compound 320, (E)-3-(4-chlorophenyl)-N-(((3S,5S)-1-(2,2-diphenylethyl)-2-oxo-3-phenethyl-1,4-diazepan-5-yl)methyl)acrylamide], the IC50 was below 1 µM.
In the case of `O=C(/C=C/c1ccc(Cl)cc1)NC[C@@H]1CCN(CC(c2ccccc2)c2ccccc2)C(=O)[C@H](CCC2CCCCC2)N1` [Compound 322, (E)-3-(4-chlorophenyl)-N-(((3S,5S)-3-(2-cyclohexylethyl)-1-(2,2-diphenylethyl)-2-oxo-1,4-diazepan-5-yl)methyl)acrylamide], the IC50 is below 1 µM.
Turning to `O=C(/C=C/c1ccc(Cl)cc1)NC[C@@H]1CCN(CC(c2ccccc2)c2ccccc2)C(=O)[C@H](Cc2ccccc2)N1` [Compound 324, (E)-N-(((3S,5S)-3-benzyl-1-(2,2-diphenylethyl)-2-oxo-1,4-diazepan-5-yl)methyl)-3-(4-chlorophenyl)acrylamide], the IC50 is below 1 µM.
`NCC[C@@H]1N[C@H](CNC(=O)c2ccc(Cl)c(Cl)c2)CCN(Cc2cc(Cl)cc(Cl)c2)C1=O` [Compound 325, N-(((3S,5S)-3-(2-aminoethyl)-1-(3,5-dichlorobenzyl)-2-oxo-1,4-diazepan-5-yl)methyl)-3,4-dichlorobenzamide]: the IC50 is below 1 µM.
`NCC[C@@H]1N[C@H](CNC(=O)/C=C/c2ccc(Cl)cc2)CCN(Cc2cc(Cl)cc(Cl)c2)C1=O` [Compound 326, (E)-N-(((3S,5S)-3-(2-aminoethyl)-1-(3,5-dichlorobenzyl)-2-oxo-1,4-diazepan-5-yl)methyl)-3-(4-chlorophenyl)acrylamide]: the half-inhibitory concentration (IC50) was below 0.1 µM.
For the compound `O=C(NC[C@@H]1CCN(Cc2cc(Cl)cc(Cl)c2)C(=O)[C@H](CCN2CCCCC2)N1)c1ccc(Cl)c(Cl)c1` [Compound 343, 3,4-dichloro-N-(((3S,5S)-1-(3,5-dichlorobenzyl)-2-oxo-3-(2-(piperidin-1-yl)ethyl)-1,4-diazepan-5-yl)methyl)benzamide], the IC50 was below 0.1 µM.
Turning to `O=C(/C=C/c1ccc(Cl)cc1)NC[C@@H]1CCN(Cc2cc(Cl)cc(Cl)c2)C(=O)[C@H](CCN2CCCCC2)N1` [Compound 345, (E)-3-(4-chlorophenyl)-N-(((3S,5S)-1-(3,5-dichlorobenzyl)-2-oxo-3-(2-(piperidin-1-yl)ethyl)-1,4-diazepan-5-yl)methyl)acrylamide], the IC50 was below 0.01 µM.
For `CCC(CC)CN1CC[C@@H](CNC(=O)c2ccc(Cl)c(Cl)c2)N[C@@H](CCN)C1=O` [Compound 346, N-(((3S,5S)-3-(2-aminoethyl)-1-(2-ethylbutyl)-2-oxo-1,4-diazepan-5-yl)methyl)-3,4-dichlorobenzamide], the IC50 is below 1 µM.
For `CCC(CC)CN1CC[C@@H](CNC(=O)c2ccc(Cl)c(Cl)c2)N[C@@H](CCN2CCCCC2)C1=O` [Compound 349, 3,4-dichloro-N-(((3S,5S)-1-(2-ethylbutyl)-2-oxo-3-(2-(piperidin-1-yl)ethyl)-1,4-diazepan-5-yl)methyl)benzamide], the IC50 was below 0.1 µM.
As for `CCC(CC)CN1CC[C@@H](CNC(=O)c2ccc(Cl)c(F)c2)N[C@@H](CCN)C1=O` [Compound 351, N-(((3S,5S)-3-(2-aminoethyl)-1-(2-ethylbutyl)-2-oxo-1,4-diazepan-5-yl)methyl)-4-chloro-3-fluorobenzamide], the IC50 is below 10 µM.
